Data: patent publication US20260234167A1, “SOLID STATE FORMS OF DELGOCITINIB AND PROCESS THEREOF” (ASSIA CHEMICAL INDUSTRIES LTD., priority 2023, published 2026)

Key:
Type in all cases: physicochemical
[1] = Storage stability at different relative humidities at ambient temperature, XRPD after 7 days; conditions: ambient temperature, 7 days, listed as DL11
Protocol: Powder X-ray Diffraction was performed on an X-Ray powder diffractometer Bruker D8 Advance; CuK radiation (λ=1.5418 Å); Lynx eye detector; laboratory temperature 22-25° C.; PMMA specimen holder ring. Prior to analysis, the samples were gently ground by means of mortar and pestle in order to obtain a fine powder. The ground sample was adjusted into a cavity of the sample holder and the surface of the sample was smoothed by means of a cover glass. Measurement parameters: Scan range: 2-40 degrees 2-theta; Scan mode: continuous; Step size: 0.05 degrees; Time per step: 0.5 s; Sample spin: 30 rpm; Sample holder: PMMA specimen holder ring with silicon low background. Samples of crystalline forms of Delgocitinib according to the disclosure, were subjected to conditions of different relative humidities at ambient temperature. XRPD analysis was performed on the samples after 7 days.

[2] = Storage stability at different relative humidities and temperatures in packed bags, XRPD after 1, 2, 3 and 6 months; conditions: listed as DL11
Protocol: Powder X-ray Diffraction was performed on an X-Ray powder diffractometer Bruker D8 Advance; CuK radiation (λ=1.5418 Å); Lynx eye detector; laboratory temperature 22-25° C.; PMMA specimen holder ring. Prior to analysis, the samples were gently ground by means of mortar and pestle in order to obtain a fine powder. The ground sample was adjusted into a cavity of the sample holder and the surface of the sample was smoothed by means of a cover glass.
Measurement parameters: Scan range: 2-40 degrees 2-theta; Scan mode: continuous; Step size: 0.05 degrees; Time per step: 0.5 s; Sample spin: 30 rpm; Sample holder: PMMA specimen holder ring with silicon low background.
Samples of Delgocitinib polymorph forms according to the disclosure were subjected to conditions of different relative humidities at different temperatures. Forms DL1 was kept in low-density polyethylene bag (twist and tied) covered by triple laminated bag (heat and sealed). Forms DL2, DL3, DL10 and DL11 were kept in low-density polyethylene bag (twist and tied) and covered by triple laminated bag (heat and sealed), while 2 gram silica gel sachet was added in between the two bags.

[3] = Grinding experiments (strong grinding in mortar with pestle for 2 minutes), XRPD after grinding; conditions: about 20 mg ground in mortar with pestle for 2 minutes; listed as DL11
Protocol: Powder X-ray Diffraction was performed on an X-Ray powder diffractometer Bruker D8 Advance; CuK radiation (λ=1.5418 Å); Lynx eye detector; laboratory temperature 22-25° C.; PMMA specimen holder ring. Prior to analysis, the samples were gently ground by means of mortar and pestle in order to obtain a fine powder. The ground sample was adjusted into a cavity of the sample holder and the surface of the sample was smoothed by means of a cover glass. Measurement parameters: Scan range: 2-40 degrees 2-theta; Scan mode: continuous; Step size: 0.05 degrees; Time per step: 0.5 s; Sample spin: 30 rpm; Sample holder: PMMA specimen holder ring with silicon low background. Samples of Delgocitinib forms according to the disclosure were subjected to strong grinding. In these experiments, about 20 mg of the sample was placed in a mortar and ground with a pestle for 2 minutes. XRPD analysis was performed on each sample after the grinding experiment (Table 4): […]

[4] = Stability to compression (2 tons, hydraulic press), XRPD after 2 minutes; conditions: 2 tons for 2 minutes; listed as DL11
Protocol: Powder X-ray Diffraction was performed on an X-Ray powder diffractometer Bruker D8 Advance; CuK radiation (λ=1.5418 Å); Lynx eye detector; laboratory temperature 22-25° C.; PMMA specimen holder ring. Prior to analysis, the samples were gently ground by means of mortar and pestle in order to obtain a fine powder. The ground sample was adjusted into a cavity of the sample holder and the surface of the sample was smoothed by means of a cover glass. Measurement parameters: Scan range: 2-40 degrees 2-theta; Scan mode: continuous; Step size: 0.05 degrees; Time per step: 0.5 s; Sample spin: 30 rpm; Sample holder: PMMA specimen holder ring with silicon low background. Samples of Delgocitinib were subjected to pressures of 2 tons (Atlas® Autopress hydraulic press, set to 2 tons). XRPD analysis was carried out on the samples after 2 minutes.

C[C@H]1CN(C(=O)CC#N)[C@]12CCN(c1ncnc3[nH]ccc13)C2 [Form DL11, 3-[(3S,4R)-3-methyl-7-(7H-pyrrolo[2,3-d]pyrimidin-4-yl)-1,7-diazaspiro[3.4]octan-1-yl]-3-oxopropanenitrile]
DL11: XRPD after storage at different relative humidities for 7 days ([1]; 20% relative humidity) | XRPD after storage at different relative humidities for 7 days ([1]; 40% relative humidity) | XRPD after storage at different relative humidities for 7 days ([1]; 60% relative humidity) | XRPD after storage at different relative humidities for 7 days ([1]; 80% relative humidity) | XRPD after storage at 25° C. at 60% RH ([2]; 1 month) | XRPD after storage at 25° C. at 60% RH ([2]; 2 months) | XRPD after storage at 25° C. at 60% RH ([2]; 3 months) | XRPD after storage at 25° C. at 60% RH ([2]; 6 months) | XRPD after storage at 40° C. at 75% RH ([2]; 1 month) | XRPD after storage at 40° C. at 75% RH ([2]; 2 months) | XRPD after storage at 40° C. at 75% RH ([2]; 3 months) | XRPD after storage at 40° C. at 75% RH ([2]; 6 months) | XRPD after grinding [3] | XRPD after compression force (2 tons for 2 minutes) [4]
